Laboratory results as given in patent EP4205753A1, “ANTIVIRAL PLANT EXTRACT COMPOSITION AND METHOD FOR PREPARING SUCH COMPOSITION” (priority 2021, dated 2023).
Like-named read-outs stand apart in the source and are kept apart here.

Assays:
SARS-CoV-2 [1] = test: microbe, parasite or virus in culture; details: Severe acute respiratory syndrome coronavirus 2, Vero C1008, 55 h, read-out: viability in comparison with non-infected cells
SARS-CoV-2 [2] = tested on: SARS-CoV-2

| Compound | viability at 25 µM (SARS-CoV-2 [1]) [%] | cell viability in comparison with non-infected cells (SARS-CoV-2 [2]; 1 µM) [%] | cell viability in comparison with non-infected cells (SARS-CoV-2 [2]; 10 µM) [%] |
| --- | --- | --- | --- |
| CCC(CC)COC(=O)[C@H](C)N[P@](=O)(OC[C@H]1O[C@@](C#N)(c2ccc3c(N)ncnn23)[C@H](O)[C@@H]1O)Oc1ccccc1 [Remdesivir] | 97 |  |  |
| C=C[C@H](OC(C)=O)c1ccc(OC(C)=O)cc1 [AAC, acetoxychavicol acetate] |  | 59 | 66 |
